Laboratory results as given in patent US10208083B2 (priority 2015, dated 2019).
Marks after values point to notes of the source that are not given here.

Key:
[1] = system: SCOV-3 human ovarian cancer; conditions: in vivo; as to OS % on Day-70: test concentration or dose not given here; as to PFS % on Day-70: test concentration or dose not given here
PC-3 = test: cells; assay type: cell-based, human; set-up: TGI: unit not given here; conditions: for GI50 / IC50: Homo sapiens, PC-3, 48 h
C57Bl/6 mice = conditions: female, C57Bl/6, mouse, in vivo, ip
in vivo = conditions: female, C57Bl/6, mouse, ip
SKOV-3 = test: cells; assay type: cell-based, human; set-up: TGI: unit not given here; conditions: for GI50 / IC50: Homo sapiens, SK-OV-3, 48 h
UWB1.289 = test: cells; assay type: cell-based, human; set-up: TGI: unit not given here; conditions: for GI50 / IC50: Homo sapiens, UWB1289, 48 h
K-562 = test: cells; assay type: cell-based, human; set-up: TGI: unit not given here; conditions: for GI50 / IC50: Homo sapiens, K562, 48 h
MCF-7 = test: cells; assay type: cell-based, human; set-up: TGI: unit not given here; conditions: for GI50 / IC50: Homo sapiens, MCF7, 48 h
UWB1.289 + BRCA1 = test: cells; assay type: cell-based, human; set-up: TGI: unit not given here; conditions: for GI50 / IC50: Homo sapiens, UWB1289, 48 h
[2] = system: murine P388 lymphocytic leukemia; set-up: species or system mice; conditions: mouse, in vivo, ip; also: test concentration or dose not given here
T-47D = test: cells; assay type: cell-based, human; set-up: TGI: unit not given here; conditions: for GI50 / IC50: Homo sapiens, T47D, 48 h
OVCAR-3 = test: cells; assay type: cell-based, human; set-up: TGI: unit not given here; conditions: for GI50 / IC50: Homo sapiens, OVCAR-3, 48 h
MOLT-4 = test: cells; assay type: cell-based, human; set-up: TGI: unit not given here; conditions: for GI50 / IC50: Homo sapiens, MOLT-4, 48 h

SMILES	OS % on Day-70 [1]	PFS % on Day-70 [1]	TI % at Day-35 [1]	TGI (PC-3)	GI50 (PC-3)	IC50 (PC-3)	LD10 (C57Bl/6 mice)	LD50 (in vivo)	TGI (SKOV-3)	GI50 (SKOV-3)	IC50 (SKOV-3)	TGI (UWB1.289)	GI50 (UWB1.289)	IC50 (UWB1.289)	TGI (K-562)	GI50 (K-562)	IC50 (K-562)	TGI (MCF-7)	GI50 (MCF-7)	IC50 (MCF-7)	other results
C[C@]12CC[C@H](OC(=O)Cc3ccc(N(CCCl)CCCl)cc3)C[C@@H]1CC[C@@H]1[C@@H]2CC[C@@]2(C)NC(=O)CC[C@@H]12 [ASE, 3beta-hydroxy-13alpha-amino-13,17-seco-5alpha-androstan-17-oic-13,17-lactam-[p-[bis (2-chloroethyl)amino]phenyl]acetate, reference compound]	80%	40%	34%	49	34 µM	89 µM	30 mg/kg	50 mg/kg	92	45 µM	> 100 µM	30	16 µM	54 µM	78	9 µM	> 100 µM	57	29 µM	96 µM	TGI (UWB1.289 + BRCA1): >100; GI50 (UWB1.289 + BRCA1): 80 µM; IC50 (UWB1.289 + BRCA1): > 100 µM; Cures [2]: 0/6; MST ± SD [2]: 24 days; T/C % [2]: 267* %; TGI (T-47D): 47; GI50 (T-47D): 22 µM; IC50 (T-47D): 92 µM; TGI (OVCAR-3): 52; GI50 (OVCAR-3): 36 µM; IC50 (OVCAR-3): 64 µM; TGI (MOLT-4): 56; GI50 (MOLT-4): 8 µM; IC50 (MOLT-4): 93 µM
C[C@]12CC[C@H]3[C@@H](CCC4=CC(=O)NCC[C@@]43C)[C@@H]1CC[C@@H]2OC(=O)CCOc1ccc(N(CCCl)CCCl)cc1 [Compound 3]	100%	100%	62%	30	22 µM	56 µM	130 mg/kg	150 mg/kg	52	18 µM	76 µM	8	3 µM	20 µM	30	3 µM	71 µM	38	17 µM	70 µM	TGI (UWB1.289 + BRCA1): 25; GI50 (UWB1.289 + BRCA1): 12 µM; IC50 (UWB1.289 + BRCA1): 40 µM; Cures [2]: 0/6; MST ± SD [2]: 39 days; T/C % [2]: 433* %; TGI (T-47D): 25; GI50 (T-47D): 10 µM; IC50 (T-47D): 66 µM; TGI (OVCAR-3): 32; GI50 (OVCAR-3): 21 µM; IC50 (OVCAR-3): 42 µM; TGI (MOLT-4): 27; GI50 (MOLT-4): 3 µM; IC50 (MOLT-4): 65 µM
C[C@]12CC[C@@H]3c4ccc(OC(=O)CCOc5ccc(N(CCCl)CCCl)cc5)cc4CC[C@H]3[C@@H]1CCC(=O)N2 [Compound 6]	100%	100%	56%	29	16 µM	51 µM	80 mg/kg	100 mg/kg	76	12 µM	> 100 µM	20	6 µM	44 µM	30	5 µM	50 µM	36	15 µM	65 µM	TGI (UWB1.289 + BRCA1): 66; GI50 (UWB1.289 + BRCA1): 18 µM; IC50 (UWB1.289 + BRCA1): 88 µM; Cures [2]: 0/6; MST ± SD [2]: 36 days; T/C % [2]: 400* %; TGI (T-47D): 30; GI50 (T-47D): 10 µM; IC50 (T-47D): 55 µM; TGI (OVCAR-3): 40; GI50 (OVCAR-3): 30 µM; IC50 (OVCAR-3): 56 µM; TGI (MOLT-4): 28; GI50 (MOLT-4): 5 µM; IC50 (MOLT-4): 50 µM
C[C@]12CC(=O)[C@H]3[C@@H](CCC4=CC(=O)NCC[C@@]43C)[C@@H]1CC[C@@H]2OC(=O)CCOc1ccc(N(CCCl)CCCl)cc1 [Compound 11]	100%	100%	73%	44	29 µM	68 µM	100 mg/kg	130 mg/kg	32	20 µM	44 µM	20	6 µM	25 µM	35	2 µM	55 µM	68	25 µM	> 100 µM	TGI (UWB1.289 + BRCA1): 31; GI50 (UWB1.289 + BRCA1): 22 µM; IC50 (UWB1.289 + BRCA1): 42 µM; Cures [2]: 1/6; MST ± SD [2]: 56 days; T/C % [2]: 622* %; TGI (T-47D): 59; GI50 (T-47D): 26 µM; IC50 (T-47D): 98 µM; TGI (OVCAR-3): 18; GI50 (OVCAR-3): 8 µM; IC50 (OVCAR-3): 22 µM; TGI (MOLT-4): 20; GI50 (MOLT-4): 1.5 µM; IC50 (MOLT-4): 45 µM
C[C@]12CC(=O)N[C@H]3[C@@H](CCC4=CC(=O)NCC[C@@]43C)[C@@H]1CC[C@@H]2OC(=O)CCOc1ccc(N(CCCl)CCCl)cc1 [Compound 16]	100%	100%	55%	29	16 µM	51 µM	140 mg/kg	165 mg/kg	46	20 µM	70 µM	28	3 µM	40 µM	47	7 µM	65 µM	36	15 µM	65 µM	TGI (UWB1.289 + BRCA1): 32; GI50 (UWB1.289 + BRCA1): 12 µM; IC50 (UWB1.289 + BRCA1): 50 µM; Cures [2]: 0/6; MST ± SD [2]: 44 days; T/C % [2]: 489* %; TGI (T-47D): 30; GI50 (T-47D): 10 µM; IC50 (T-47D): 55 µM; TGI (OVCAR-3): 20; GI50 (OVCAR-3): 9 µM; IC50 (OVCAR-3): 35 µM; TGI (MOLT-4): 36; GI50 (MOLT-4): 4 µM; IC50 (MOLT-4): 56 µM
C[C@]12CC[C@H](OC(=O)CCOc3ccc(N(CCCl)CCCl)cc3)CC1=CC(=O)N[C@@H]1[C@@H]2CC[C@]2(C)C(=O)CC[C@@H]12 [Compound 18]	100%	80%	44%	36	23 µM	70 µM	85 mg/kg	110 mg/kg	46	24 µM	68 µM	42	13 µM	70 µM	38	6 µM	87 µM	46	21 µM	79 µM	TGI (UWB1.289 + BRCA1): 38; GI50 (UWB1.289 + BRCA1): 20 µM; IC50 (UWB1.289 + BRCA1): 69 µM; Cures [2]: 0/6; MST ± SD [2]: 34 days; T/C % [2]: 378* %; TGI (T-47D): 32; GI50 (T-47D): 14 µM; IC50 (T-47D): 72 µM; TGI (OVCAR-3): 47; GI50 (OVCAR-3): 20 µM; IC50 (OVCAR-3): 70 µM; TGI (MOLT-4): 38; GI50 (MOLT-4): 5 µM; IC50 (MOLT-4): 76 µM
